Results from patent US11008605B2, “Analysis of single-stranded RNA” (VILNIUS UNIVERSITY, priority 2015, dated 2021).

Experiments:
Hs-piRMT [1] = target: T1, Hs-piRMT (Homo sapiens, UniProt Q5T8I9); test: Metal ion requirement of piRMT methylation of ssRNA miR173.1 (NaIO4/β-elimination, PAG autoradiography); format: biochemical; conditions: 10 mM metal ion, 1 μM piRMT, 0.2 μM miR173.1, 0.1 mM AdoMet, 30 min, 37° C.
Experimental: (§1) To test the requirement of different metal cofactors, 20 μl reaction volumes, containing reaction buffer [10 mM Tris-HCl (pH 7.4), 50 mM NaCl, 0.1 mg/ml BSA, 5% (v/v) glycerol and 0.05 u/μl RiboLock (Thermo Scientific)], 0.2 μM ^32P-labelled miR173.1 (5′-[…]-3′, 22 nt) (SEQ ID NO: 3), 0.1 mM AdoMet, 10 mM metal ion and 1 μM of piRMT proteins' were mixed. After 30 min of incubation at 37° C., the degree of modification was determined by NaIO4/β-elimination reaction, during which RNA was treated with 0.2 mM NaIO4 in borax/boric acid buffer [0.06 M, pH 8.6] for 15 min followed by 75 min incubation in borax/boric acid buffer II [0.06 M pH 9.6] at 42° C. Reaction samples were analyzed in 13% denaturing polyacrylamide gel (PAG) and autoradiographed. Fractions of methylated RNA, represented by bands with lower electrophoretic mobility, were evaluated using Multi Gauge version 3.0 software (Fujifilm). The depletion of metal ions by EDTA in the reaction mixture, together with the sample without any metal cofactor added, further confirms that the effective piRMT methylation is due to Co^2+ and Co^3+ ions. B. Column-diagram of RNA methylation efficiency with different metal cofactors. Results are average of duplicate experiments±S.D.

Dm-piRMT = target: T2, Dm-piRMT (Drosophila melanogaster, UniProt Q7K175); test: as above; format: biochemical; parameters: modification efficiency towards RNA substrates with different 3′ terminal nucleotides (U, C, A, G): dose or concentration left out as unconfirmed
T2 sequence (Q7K175 1-391): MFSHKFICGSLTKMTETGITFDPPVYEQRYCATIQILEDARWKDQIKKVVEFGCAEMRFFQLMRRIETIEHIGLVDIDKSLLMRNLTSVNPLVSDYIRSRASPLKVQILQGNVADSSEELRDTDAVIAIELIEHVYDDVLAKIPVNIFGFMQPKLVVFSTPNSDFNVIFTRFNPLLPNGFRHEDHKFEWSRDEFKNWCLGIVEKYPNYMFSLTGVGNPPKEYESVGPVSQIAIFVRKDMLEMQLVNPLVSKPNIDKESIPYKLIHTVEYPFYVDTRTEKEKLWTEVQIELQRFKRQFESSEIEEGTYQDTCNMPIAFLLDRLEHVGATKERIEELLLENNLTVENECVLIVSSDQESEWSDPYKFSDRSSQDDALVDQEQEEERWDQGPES
Experimental: as §1, with “10 mM metal ion and 1 μM of piRMT proteins' were mixed.” left out
B. Column-diagram of modification efficiency of miR173.1 with different 3′ terminal nucleotides. Results are average of two experiments±S.D.

Hs-piRMT [2] = target: T1, Hs-piRMT; conditions: Mn2+ as metal cofactor; cited from earlier work

T1 sequence (Q5T8I9 whole entry): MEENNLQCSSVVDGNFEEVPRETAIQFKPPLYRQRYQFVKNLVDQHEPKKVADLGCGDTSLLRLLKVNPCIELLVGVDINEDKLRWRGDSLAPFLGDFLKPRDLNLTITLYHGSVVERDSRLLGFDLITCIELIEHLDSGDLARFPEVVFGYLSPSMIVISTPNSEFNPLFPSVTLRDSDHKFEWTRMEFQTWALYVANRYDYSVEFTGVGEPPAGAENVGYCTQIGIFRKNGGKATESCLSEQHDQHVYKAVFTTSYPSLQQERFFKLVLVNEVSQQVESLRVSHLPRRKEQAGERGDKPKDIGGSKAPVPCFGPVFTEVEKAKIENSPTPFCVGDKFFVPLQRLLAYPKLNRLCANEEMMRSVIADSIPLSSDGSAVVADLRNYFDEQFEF

SMILES | degree of methylation of ssRNA substrate with metal ion cofactor (Hs-piRMT [1]) | degree of methylation of ssRNA substrate with metal ion cofactor (Dm-piRMT; 10 mM metal ion, 1 μM piRMT, 0.2 μM miR173.1, 0.1 mM AdoMet, 30 min, 37° C.) | modification efficiency towards RNA substrates with different 3′ terminal nucleotides (U, C, A, G) (Dm-piRMT; Co2+ as metal cofactor, miR173.1 variants) | RNA modification level in presence of metal ion (Hs-piRMT [2])
[Co+2] [Co^2+] | full methylation | full methylation | equally effective modification | –
[Mn+2] [Mn^2+] | – | – | – | seemingly low levels
